Assay results published in publication doi:10.1101/2025.11.04.686469, “Discovery of Host-Directed Small Molecules with Broad Anti-Leishmanial Efficacy” (bioRxiv, 2025).
pIC50: −log10 of the molar value.

Key:
[1] = test system: intracellular L. donovani amastigotes; experiment: Luminescent-based evaluation of intracellular anti-leishmanial activity in THP-1 macrophages; type: cell-based, Leishmania donovani; details: intracellular Leishmania donovani in THP1 macrophages, luminescence assay (Supplemental Table 2); read-out: Lum IC50
Procedure: Luminescent strains, L. donovani LV82 expressing firefly luciferase (a kind gift from Dr. Abhay Satoskar, Ohio State University) and L. mexicana (NR-51210, ATCC) expressing renilla luciferase were used to evaluate the effect of the compounds in intracellular and extracellular conditions. Wild-type L. donovani LV82 (ATCC) were used for Giemsa staining based experiments. All parasites were cultured at 25°C and 5% CO2 in M199 media (Corning) supplemented with 10% FBS, 1% penicillin/streptomycin, and hemin (0.01 mg/mL), and used in experiments up to passage 15.
THP-1 cells were seeded in a 96 well plate (25,000 cells/well) overnight then differentiated with 150 nM phorbol 12-myristate 13-acetate (PMA) over 72 hours (Supplemental Figure 1). […] Briefly, promastigotes of a known cell density were resuspended in RPMI media (with 10% FBS, 1% P/S and 0.05 mM β-mercaptoethanol) and incubated with adhered THP-1 cells over 18 hours. After infection, cells were washed three times with fresh media to remove extracellular promastigotes.
Infected macrophages were then treated with compounds solubilized in DMSO ranging from 0.1-10 μM in concentrations. After 72 hours of treatment, the viability of the amastigotes within macrophages was determined using Promega firefly luminescence assay (Cat E1500) or Pierce Renilla luciferase assay (Cat 16166) for L. donovani and L. mexicana strains, respectively. Briefly, media was removed, and cells were lysed with the assay lysis buffer. The luciferase substrate was then incubated with the lysed cells for 10 min at room temperature and luminescence of live Leishmania was measured in a white opaque 96 well plate using a Biotek plate reader.

THP-1 macrophages = experiment: Effect of compounds on host cell viability (MTT); type: cell-based; details: read-out: 24h LC50; THP1 macrophages, 24-hour incubation, MTT assay (Supplemental Table 2)
Method in brief: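 THP-1 cells were differentiated with 150 nM PMA for 72 h, then exposed to compounds at 1–50 μM for 24 h; selected compounds were also run at 1–300 μM for 72 h. MTT at 0.5 mg/mL was added for 2 h at 37 °C, and formazan absorbance was read at 560 nm minus 670 nm.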

| SMILES | pIC50 [1] | CC50 (THP-1 macrophages) [µM] |
| --- | --- | --- |
| FC(F)(F)c1cc(C2CC2)n(-c2ccc(NC3CCNC3)cc2)n1 (centres unmarked) [Compound 272] | 5.25 | 17.2 |
| Nc1ccc(-n2cc(C(F)(F)F)nc2-c2ccc(Oc3ccccc3)cc2)cc1 [Compound 221] | < 5.00 | > 50 |
| NCCCN1CCC(Oc2ccc(-n3nc(C(F)(F)F)cc3C3CCCCC3)cc2)CC1 [Compound 425] | 5.66 | 5.5 |
| FC(F)(F)c1cc(-c2ccc(C3CC3)cc2)n(-c2ccc(N3CCNCC3)cc2)n1 [Compound 211] | 5.68 | 13.2 |
| FC(F)(F)c1ccc(-c2ccc(-c3cc(C(F)(F)F)nn3-c3ccc(NC4CCN(Cc5ccccc5)CC4)cc3)cc2)cc1 [Compound 115] | 5.13 | 13.2 |
| FC(F)(F)Oc1ccc(-n2cc(C(F)(F)F)nc2-c2ccc(-c3ccccc3)cc2)cc1 [Compound 183] | < 5.00 | > 50 |
| NCC(=O)NC1CCN(c2ccc(-n3nc(C(F)(F)F)cc3-c3ccc(-c4ccc(C(F)(F)F)cc4)cc3)cc2)CC1 [Compound 111] | 5.54 | 5.2 |
| NCCOCCN1CCC(Oc2ccc(-n3nc(C(F)(F)F)cc3C3CCCCC3)cc2)CC1 [Compound 423] | 5.22 | 3.4 |
| FC(F)(F)c1cc(-c2ccc(-c3cccs3)cc2)n(-c2ccc(N3CCNCC3)cc2)n1 [Compound 209] | 5.52 | 10.2 |
| O=C1CN(c2ccc(-n3cc(C(F)(F)F)nc3-c3ccc(C(F)(F)F)cc3)cc2)CCN1 [Compound 332] | 5.10 | 31.2 |
| FC(F)(F)c1cc(C(F)(F)F)n(-c2ccc(NC3CCNC3)cc2)n1 (centres unmarked) [Compound 314] | 5.57 | 21.9 |
| FC(F)(F)c1ccc(-c2ccc(-c3cc(C(F)(F)F)nn3-c3ccc(OC4CCN(Cc5ccccc5)C4)cc3)cc2)cc1 (centres unmarked) [Compound 145] | < 5.00 | > 50 |
| CC(C)(C)OC(=O)NC1CCN(C(=O)c2ccc(-n3cc(C(F)(F)F)nc3-c3ccc(-c4ccc(C(F)(F)F)cc4)cc3)c(F)c2)C1 (centres unmarked) [Compound 182] | 5.23 | 18 |
| FC(F)(F)c1ccc(-c2ccc(-c3nc(C(F)(F)F)c[nH]3)cc2)cc1 [Compound 75] | < 5.00 | 48.8 |
| CC(=O)NCCCN1CCC(Oc2ccc(-n3nc(C(F)(F)F)cc3C3CCCCC3)cc2)CC1 [Compound 428] | 5.05 | 11.4 |
| O=C(c1ccc(-n2cc(C(F)(F)F)nc2-c2ccc(-c3ccc(C(F)(F)F)cc3)cc2)c(F)c1)N1CCC(NCc2cccc(F)c2)C1 (centres unmarked) [Compound 178] | < 5.00 | > 50 |
| Oc1ccc(CNC2CCN(c3ccc(-n4nc(C(F)(F)F)cc4-c4ccc(-c5ccc(C(F)(F)F)cc5)cc4)cc3)C2)cc1 (centres unmarked) [Compound 18] | 5.40 | 24.5 |
| Nc1ccc(-c2cc(C(F)(F)F)nn2-c2ccc(-c3ccc(C(F)(F)F)cc3)cc2)cc1 [Compound 152] | < 5.00 | 43.6 |
| FC(F)(F)c1cc(C2CCCCC2)n(-c2ccc(OC3CCN(Cc4ccccc4)CC3)cc2)n1 [Compound 371] | 5.05 | > 50 |
| FC(F)(F)c1cc(-c2ccc(Cl)c(Cl)c2)n(-c2ccc(Br)cc2)n1 [Compound 198] | < 5.00 | > 50 |
| FC(F)(F)c1cc(-c2ccc(-c3ccsc3)cc2)n(-c2ccc(N3CCNCC3)cc2)n1 [Compound 210] | 5.60 | 10.5 |
| FC(F)(F)c1ccc(-c2ccc(-c3cc(C(F)(F)F)nn3-c3ccc(NC4CCN(C5CCCCC5)C4)cc3)cc2)cc1 (centres unmarked) [Compound 58] | 5.66 | 2.6 |
| NC1CCN(c2ccc(-n3nncc3-c3ccc(-c4ccc(C(F)(F)F)cc4)cc3)cc2)C1 (centres unmarked) [Compound 137] | 5.36 | 7.3 |
| FC(F)(F)c1cc(C2CCCCC2)n(-c2ccc(OC3CCNC3)cc2)n1 (centres unmarked) [Compound 375] | 5.20 | 12.3 |
| FC(F)(F)c1ccc(-c2ccc(-c3cc(C(F)(F)F)nn3-c3ccc(N4CCNCC4)cc3)cc2)cc1 [Compound 220] | 5.89 | 15.4 |
| FC(F)(F)c1cn(-c2ccc(N3CCNCC3)cc2)c(-c2ccc(Cl)cc2)n1 [Compound 51] | 5.09 | 25.7 |
| FC(F)(F)c1ccc(-c2ccc(-c3cc(C(F)(F)F)nn3-c3ccc(OC4CCNCC4)cc3)cc2)cc1 [Compound 34] | 5.22 | > 50 |
| O=[N+]([O-])c1ccc(-n2cc(C(F)(F)F)nc2-c2ccc(Br)cc2)cc1 [Compound 192] | < 5.00 | > 50 |

| SMILES | pIC50 [1] | CC50 (THP-1 macrophages) [µM] |
| --- | --- | --- |
| FC(F)(F)c1cc(C2CCCCC2)n(-c2ccc(NC3CCNCC3)cc2)n1 [Compound 339] | 5.77 | 18.2 |
| FC(F)(F)c1ccc(-c2ccc(-c3cc(C(F)(F)F)nn3-c3ccc(NC4CCN(Cc5ccccc5)C4)cc3)cc2)cc1 (centres unmarked) [Compound 114] | < 5.00 | 13.6 |
| CC(C)(C)OC(=O)NCC(=O)Nc1ccc(-n2cnc3ccccc32)cc1 [Compound 148] | < 5.00 | > 50 |
| NC(Cc1ccccc1)C(=O)N1CCC(Nc2ccc(-n3nc(C(F)(F)F)cc3-c3ccc(-c4ccc(C(F)(F)F)cc4)cc3)cc2)C1 (centres unmarked) [Compound 61] | 5.64 | 6.1 |
| FC(F)(F)c1ccc(-c2cc(C(F)(F)F)nn2-c2ccc(NC3CCNC3)cc2)cc1 (centres unmarked) [Compound 252] | 5.64 | 14.4 |
| CC(=O)c1ccc(-n2cc(C(F)(F)F)nc2-c2ccc(-c3ccccc3)cc2)cc1 [Compound 184] | 5.30 | > 50 |
| FC(F)(F)c1ccc(-c2nc(C(F)(F)F)cn2-c2ccc(NC3CCNC3)cc2)cc1 (centres unmarked) [Compound 296] | 5.52 | 12.9 |
| FC(F)(F)c1cc(-c2ccc(Cl)cc2)n(-c2ccc(Br)cc2)n1 [Compound 194] | < 5.00 | > 50 |
| NCC(=O)Nc1ccc(-n2nc(C(F)(F)F)cc2C2CCCCC2)cc1 [Compound 341] | 5.40 | 26.5 |
| CC(C)C#Cc1ccc(-c2cc(C(F)(F)F)nn2-c2ccc(N3CCC(NC(=O)OC(C)(C)C)C3)cc2)cc1 (centres unmarked) [Compound 97] | < 5.00 | > 50 |
| NS(=O)(=O)c1ccc(-n2nc(C(F)(F)F)cc2-c2ccc(-c3ccc(C(F)(F)F)cc3)cc2)cc1 [Compound 188] | 5.51 | 9 |
| NC1CCN(c2ccc(-n3nc(C(F)(F)F)cc3-c3ccc(-c4ccc(S(F)(F)(F)(F)F)cc4)cc3)cc2)C1 (centres unmarked) [Compound 106] | 5.09 | 6 |
| FC(F)(F)c1cc(C2CCCCC2)n(-c2ccc(NC3CN(Cc4ccccc4)C3)cc2)n1 [Compound 395] | 5.12 | 37.4 |
| Oc1ccc(CN2CCC(Nc3ccc(-n4nc(C(F)(F)F)cc4C4CCCCC4)cc3)CC2)cc1 [Compound 392] | 5.33 | 25.9 |
| COc1ccc(-n2nc(C(F)(F)F)cc2-c2ccc(-c3ccc(C(F)(F)F)cc3)cc2)c(C)c1 [Compound 187] | < 5.00 | > 50 |
| FC(F)(F)c1ccc(-c2ccc(-c3nc(C(F)(F)F)cn3-c3ccc(N4CCNCC4)cc3)cc2)cc1 [Compound 74] | 5.55 | 6.5 |
| CC(C)C#Cc1ccc(-c2cc(C(F)(F)F)nn2-c2ccc(N3CCC(N)C3)cc2)cc1 (centres unmarked) [Compound 98] | < 5.00 | 19.5 |
| Nc1ccc(-n2cnc3ccccc32)cc1 [Compound 147] | < 5.00 | > 50 |
| FC(F)(F)c1cc(-c2cccnc2)n(-c2ccc(Br)cc2)n1 [Compound 249] | < 5.00 | 50 |
| CC(C)(C)OC(=O)NC1CCN(c2ccc(-n3nc(C(F)(F)F)cc3C3CCCCC3)cc2)C1 (centres unmarked) [Compound 230] | < 5.00 | 9.5 |
| NCCN1CCC(Oc2ccc(-n3nc(C(F)(F)F)cc3C3CCCCC3)cc2)CC1 [Compound 416] | 5.89 | 18.2 |
| FC(F)(F)c1cc(C2CCCCC2)n(-c2ccc(NC3CNC3)cc2)n1 [Compound 394] | 5.26 | 30.9 |
| FC(F)(F)c1cc(C2CCCCC2)n(-c2ccc(OC3CCNCC3)cc2)n1 [Compound 370] | 5.59 | 19.5 |
| NCC(=O)Nc1ccc(-n2cc(C(F)(F)F)nc2-c2ccc(-c3ccc(C(F)(F)F)cc3)cc2)cc1 [Compound 79] | 5.15 | 6.3 |
| NC1CN(c2ccc(-n3nc(C(F)(F)F)cc3-c3ccc(-c4ccc(C(F)(F)F)cc4)cc3)cc2)C1 [Compound 172] | < 5.00 | > 50 |
| FC(F)(F)c1ccc(-c2ccc(-c3cc(C(F)(F)F)nn3-c3ccc(N4CC(NCc5ccccc5)C4)cc3)cc2)cc1 [Compound 112] | < 5.00 | 6.3 |
| NC1CCN(c2ccc(-n3nc(C(F)(F)F)cc3C3CCCCC3)cc2)CC1 [Compound 324] | 5.72 | 27.5 |
